Experimental data published in patent US5643907A, “Pharmaceutical composition containing 5-morpholinomethyl-3-(4-chlorobenzylideneamine)-2-oxazolidinone and its use for the treatment of CNS disorders” (priority 1993, dated 1997).
Counter-ions that a name gives are not always drawn.

Key:
[1] = test system: uptake of noradrenaline; test: Effect on the uptake of noradrenaline in vivo (protection from 6-OHDA); parameters: species or system rat
Procedure: The point of reference for measuring the inhibiting effect on the uptake of noradrenaline was the protection from the effect of 6-hydroxydopamine (6-OHDA), which was administered intraventricularly. Rats were applied intraventricularly 250 μg of 6-OHDA in the volume of 20 μl of 0,9% solution of […] and 0,1% solution of ascorbic acid. […] The animals were decapitated 7 days after and the level of noradrenaline in the whole brain was measured by the division on the Sephadex G-10 column and fluorimetric assay following oxidation.

[2] = test system: uptake of serotonin; conditions: 200 mg/kg before p-CA; control 353 ± 117, 7
[3] = test system: reserpine pretreated mice; test: Intensification of L-Dopa effects in reserpine pretreated mice; assay type: in vivo, mouse
Procedure: 2) The intensification of L-Dopa effects in reserpine pretreated mice.
The examined preparation was administered to mice p.o. in the dosages of 40 and 200 mg/kg 17 hours after reserpine in the dosage of 2,5 mg/kg had been administered intraperitoneally. After one hour L-dopa was injected in the dosage of 300 mg/kg. The intensification of L-dopa anti-reserpine action was evaluated according to the following parameters of the animals behaviour: mobility, irritability, ptosis and body temperature. According to the same empirical system IMI was examined in the dosages of 8 and 40 mg/kg.

[4] = test system: mice premedicated with pargyline; test: Intensification of L-dopa effects in mice premedicated with pargyline; assay type: in vivo, mouse; conditions: for Reaction of mice according to score: L-dopa 200 mg/kg i.p. after pargyline, control 1-2
Procedure: 3) The intensification of L-dopa effects in mice premedicated with pargyline.
Three hours after the oral administration of pargyline in the dosage of 40 mg/kg, there was applied orally either the examined preparation or IMI, followed after one hour by L-dopa administered intraperitoneally in the dosage of 200 mg/kg. The behaviour of the mice was evaluated according to the following 5-level score:
1 - piloerection, Straub's tail, exophtalmos of eyes, minute salivating, irritability.
2 - as above + translocations, single jumps.
3 - as above + bigger incitement of mobility, frequent jumps, climbing, single squeaks.
4 - as above + great incitement of mobility, aggresion, fights.
5 - as above + maximum incitement of mobility and aggresion

[5] = test system: uptake of serotonin; test: Effect on the uptake of serotonin in vivo (protection from p-chloramphetamine)
[6] = test system: beta-adrenergic receptor; test: Influence of chronic administration on concentration of beta-adrenergic cerebral receptors in vivo (3H-dihydroalprenolol bonding to cerebral cortex membranes); parameters: species or system rat; conditions: chronic
Procedure: Rats were administered the examined preparation in the form of intraperitoneally injection and the dosage of 200 mg/kg twice daily for six weeks. In the same empirical system IMI was examined in the dosage of 10 mg/kg. The animals were killed 24 hours after the last injection and their cerebral cortexes were skeletonized.
The population of the beta-adrenergic receptor was characterised by the examination of the parameters of the ^3 H-dihydroalprenolol (^3 H-DHA) bonding to the membranes (fractiom P2) of the cerebral cortex. The tissue was homogenised in 20 volumes of the 50 mM buffer TRIS-HCl, pH 7,6 in the Polytron disintegrator (position 4,155) and centrifuged at 1000 g for 10 minutes. The supernatant was decanted and again centrifuged at 25000 for 20 minutes. The operations were conducted in the temperature of 0°-4° C. The precipitate, after the second centrifugation, decanting and removing the supernatant, was kept in the temperature of -18° C. until the time of incubation (no longer than 48 hours). The final fraction P2 was obtained by the subsequent process of the sediment homogenisation in such a volume of 50 mM buffer TRIS-HCl, pH 7,6, that the final concentration of protein amounted to 1,5 mg/ml.
The incubation mixture, containing 450 μl of the fraction P2 suspension, 50 μl of the ^3 H-DHA solution (6 different solutions; the final concentrations in the mixture […]) and 50 μl of buffer or propranolol solution (the final concentration in the sample […]) was incubated for 30 minutes in the temperature of 25° C. The incubation was finished by filtrating the suspension through filters made of glass fibres. The filters were twice rinsed with 5 ml of cold (0° C.) buffer TRIS-HCl, pH 7,6, and placed in scintillation minivessels, to which Bray's liquid was added. The radioactivity was measured by the Packard scintillation counter, model B329 with the efficiency of 36-37%.
The specific bonding was defined as the radioactivity difference between the samples incubated in the absence of propranolol (complete bonding) and in the presence of 10 μM of propranolol (blank). The data from the counter […] were recalculated individually into the decay frequence […], calculating it from the individual efficiency of each sample, received from the relation of impulses in the canals A and B. Bmax value and the constant of dissociation KD was calculated from the Scatchard diagrams, which were rectilinear.

[7] = test system: rats behaviour; test: Influence on the rats behaviour in "despair test" (Porsolt), immobility period; assay type: in vivo, rat; conditions: for The immobility period, % of control: twice
Procedure: 1) The influence on the rats behaviour in "despair test".
The rats were placed separately in upright, metallic cylindrical containers, 60 cm high and 18 cm in diameter, containing 15 centimeters of water, at a temperature of 25° C. […] After 24 hours the rats were dived in water again and for 5 minutes the complete immobility period was measured. The examined preparation (containing 5-morpholinomethyl-3-(4-chlorobenzylideneamine)-2-oxazolidinone hydrochloride) or imipramine (IMI) was administered per os twice: at 24 hours and one hour before the beginning of the observation.

[8] = test system: process of learning and memorising; test: Effect on the process of learning and memorising (conditioned jump on a bar); assay type: in vivo, rat
[9] = test system: mice in the conditions of hypoxia; test: Effect on the time of survival in the conditions of hypoxia; assay type: in vivo, mouse; conditions: for The number of mice surviving in the conditions of hypoxia: surviving/complete number
Procedure: The examined preparation was applied i.o. in the dosages 5, 10, 50, 75, 100 mg/kg 60 minutes before the beginning of the experiment. The experiment lasted until 0-3 animals survived in the control group. Subsequently oxygen was let in and finally normal air. The number of animals which survived in the control group was compared to the number of animals in the group administered the examined preparation. The number of surviving mice is presented in relation to the complete number of examined mice.

[10] = mice premedicated with pargyline

O=C1OC(CN2CCOCC2)CN1N=Cc1ccc(Cl)cc1 (centres unmarked) [Examined preparation, 5-morpholinomethyl-3-(4-chlorobenzylideneamine)-2-oxazolidinone hydrochloride]
noradrenaline, % in relation to the group after chemosympathectomy ([1]; 40 (mg/kg) before 6-OHDA): 92% | noradrenaline, % in relation to the group after chemosympathectomy ([1]; 200 (mg/kg) before 6-OHDA): 155% | Concentration of noradrenaline in the brain X ± SEM ([1]; 200 (mg/kg) before 6-OHDA, control 205 ± 10, 5): 148 ± 24, 9 mg/kg tissue | inhibiting the uptake of noradrenaline ([1]; high dosages): proves effective in inhibiting the uptake of noradrenaline | inhibition of the effect of 6-OHDA compared with IMI ([1]; higher dosage): inhibits it almost as effectively as IMI | prevention of the effect of 6-OHDA ([1]; low dosage): does not prevent the effect of 6-OHDA completely | Concentration of serotonin in the brain X ± SEM [2]: 367 ± 30, 1 mg/kg tissue | irritability and incitement, second phase ([3]; 200 mg/kg, after 90 minutes): there appeared irritability and big incitement, which lasted over an hour | body posture (righting) reflex ([3]; 200 mg/kg, first hour after the application): loss of body posture (righting) reflex | effectiveness of smaller versus bigger dosage ([3]; 40 vs 200 mg/kg): A smaller dosage proved to be more effective than a bigger one | effect on ptosis, hypothermy, mobility and irritability ([3]; reserpine pretreated mice + L-dopa): reduced ptosis and hypothermy and raised the animals' mobility and irritability | intensification of the behavioural effects of L-dopa ([3]; reserpine pretreated mice, compared with IMI): intensified the behavioural effects of L-dopa action in reserpine pretreated mice in the same way as IMI | Reaction of mice according to score ([4]; 10 mg/kg p.o.): 5 | Reaction of mice according to score ([4]; 20 mg/kg p.o.): 5 | Reaction of mice according to score ([4]; 40 mg/kg p.o.): 5 | Reaction of mice according to score ([4]; 200 mg/kg p.o.): 3-4 | mobility and emotion incitement ([4]; after the dosages of 10, 20 and 40 mg/kg): strongest mobility and emotion incitement | effectiveness compared with IMI [4, 10]: stronger effectiveness than IMI | intensification of L-dopa effects [4, 10]: very strong intensification of L-dopa effects | serotonin, % in relation to the group after p-chloramphetamine ([5]; 40 mg/kg before p-CA): 107% | serotonin, % in relation to the group after p-chloramphetamine ([5]; 200 mg/kg before p-CA): 172% | prevention of the p-chloramphetamine effect ([5]; high dosage): prevented the p-chloramphetamine effect completely | effect on the washing-out action of p-chloramphetamine ([5]; low dosage): did not produce any effects on the washing-out action of p-chloramphetamine | Bmax, % of control ([6]; 40 mg/kg daily dosage): 67% | KD, % of control ([6]; 40 mg/kg daily dosage): 63% | Bmax, % of control ([6]; 200 mg/kg daily dosage): 72% | KD, % of control ([6]; 200 mg/kg daily dosage): 68% | effect on the concentration of receptors, compared with imipramine ([6]; both dosages): did not differ considerably | constant of dissociation value KD / beta-adrenergic receptor affinity ([6]; both dosages, as distinct from imipramine): statistically considerable decline of the constant of dissociation value KD and consequently the increase of the beta-adrenergic receptor affinity | The immobility period, % of control ([7]; 40 mg/kg p.o.): 89% | effect on immobility compared with IMI (20 mg/kg) ([7]; 200 mg/kg): equals approximately to the effect of IMI (20 mg/kg) | shortened the rats' immobility period in relation to the control group ([7]; 200 mg/kg): 18% | The immobility period, % of control ([7]; 200 mg/kg p.o.): 82% | process of learning ([8]; 5 mg/kg i.p. everyday): accelerates the process of learning | effect on learning compared with piracetam and pyritinol ([8]; 5 mg/kg i.p. vs piracetam 100 mg/kg, pyritinol 100 mg/kg): weaker than the effect of piracetam, but stronger than the effect of pyritinol | The number of mice surviving in the conditions of hypoxia ([9]; 5 mg/kg, control 7/40, p n.d.): 5/40 | The number of mice surviving in the conditions of hypoxia ([9]; 10 mg/kg, control 5/40, p n.d.): 6/40 | The number of mice surviving in the conditions of hypoxia ([9]; 50 mg/kg, control 9/60, p <0, 01): 23/60 | The number of mice surviving in the conditions of hypoxia ([9]; 75 mg/kg, control 9/60, p <0, 01): 28/60 | The number of mice surviving in the conditions of hypoxia ([9]; 100 mg/kg, controls: Examined 9/60 (p <0, 01), Piracetam 7/40 (n.d.), Pyritinol 8/60 (p <0, 01)): 47/60 | time of mice survival in the conditions of hypoxia ([9]; in comparison to piracetam and pyritinol): prolongs the time of mice survival in the conditions of hypoxia
